Results on five compounds are retold here after US20220054643A1, “SAPONIN CONJUGATED TO EPITOPE-BINDING PROTEINS” (priority 2018, published 2022).

Data set [1] concerns HER14 cells. In words: viability assay (MTT) with HER14 cells. Type of data set: cell-based. As to conditions: 0.1 nM dianthin-EGF in the presence of SA1641. On the procedure: To test the efficacy of the invention, we conducted a viability assay with HER14 cells. These cells are fibroblasts stably transfected with the human epidermal growth factor receptor and therefore target cells for the targeted toxin dianthin-EGF. HER14 cells (2,000 cells/100 μL/well) were seeded into wells of 96-well-cell culture plates and incubated for 24 h in DMEM medium supplemented with 10% fetal calf serum and 1% penicillin/streptomycin at 37° C., 5% CO2 and 98% humidity. The different test substances (see results and FIG. 59) were then added in triplicates in a volume of 25 μL and supplemented with further 25 μL of medium. After an incubation of 72 h, 30 μL 3-(4,5-dimethylthiazol-2-yl)-2,5-diphenyltetrazolium bromide (0.5 mg/mL in water) was added per well and incubated for 2 h. Thereafter, the medium was carefully removed and replaced by an aqueous solution containing 10% (v/v) isopropanol, 5% (w/v) sodium dodecyl sulfate and 400 mM HCl, and incubated for 5 min. Solubilized formazan was photometrically quantitated at […] in a microplate reader (Spectra MAX 340 PC, Molecular Devices, Sunnyvale, Calif., USA). Untreated cells were normalized to 1 and all samples referred to the untreated control. Significance was determined by unpaired two-sample t-tests.

Data set [2] deals with A2058 cells. Briefly: cell viability assay (MTS). Type of data set: cell-based, human. As to conditions: without EGFdianthin.
Protocol: (§1) After treatment the cells were incubated for 72 hr at 37° C. before the cell viability was determined by a MTS-assay, performed according to the manufacturer's instruction (CellTiter 96® AQueous One Solution Cell Proliferation Assay, Promega). Briefly, the MTS solution was diluted 20× in DMEM without phenol red (PAN-Biotech GmbH) supplemented with 10% FBS (PAN-Biotech GmbH). The cells were washed once with 200 μL PBS per well, after which 100 μL diluted MTS solution was added per well.
(§2) The plate was incubated for approximately 20-30 minutes at 37° C. Subsequently, the optical density at 492 nm was measured on a Thermo Scientific Multiskan FC plate reader (Thermo Scientific). For quantification the background signal of ‘medium only’ wells was subtracted from all other wells, before the ratio of untreated/treated cells was calculated, by dividing the background corrected signal of untreated wells over the background corrected signal of the treated wells.
The nature of data set [3]: pH dependent hydrolysis of the hydrazone bond (MALDI-TOF-MS). Format: physicochemical. The settings on record: HCl solution at pH 3; MALDI-TOF-MS at two points in time.
For data set [4], the system named is A431 cells. Type of data set: cell-based, human. As to conditions: without EGFdianthin.
Protocol: as §1, §2
In data set [5] the test system is HeLa cells. Briefly: cell viability assay (MTS). The settings on record: for concentration above which toxicity is seen as single compound: without EGFdianthin. Type of data set: cell-based, human.
Protocol: as §1, §2
Data set [6] relates to SK-BR-3, JIMT-1, MDA-MB-468, A431, CaSki, HeLa, A2058. Briefly: control treatments, relative cell viability on various cancer cell lines. Format: cell-based, human. The settings on record: wide range of concentrations, up to 100.000 pM.
Protocol: as §1, §2

For `C[C@@H]1O[C@@H](O[C@H]2[C@H](OC(=O)[C@]34CCC(C)(C)C[C@H]3C3=CC[C@@H]5[C@@]6(C)CC[C@H](O[C@H]7O[C@H](C(=O)O)[C@@H](O)[C@H](O[C@@H]8OC[C@@H](O)[C@H](O)[C@H]8O)[C@H]7O[C@@H]7O[C@H](CO)[C@H](O)[C@H](O)[C@H]7O)[C@@](C)(C=O)[C@@H]6CC[C@@]5(C)[C@]3(C)CC4)O[C@H](C)[C@H](O[C@@H]3O[C@H](C)[C@@H](O)[C@H](O)[C@H]3O)[C@@H]2O)[C@H](O)[C@H](O)[C@H]1O[C@@H]1OC[C@@H](O)[C@H](O[C@@H]2OC[C@@H](O)[C@H](O)[C@H]2O)[C@H]1O` [SA1641], the cell viability result in data set [1] was “death of all cells”.

As to `CC(=O)OC1C(C)OC(OC2C(C)OC(OC(=O)[C@]34CCC(C)(C)CC3C3=CCC5[C@@]6(C)CC[C@H](OC7OC(C(=O)O)C(O)C(OC8OCC(O)C(O)C8O)C7OC7OC(CO)C(O)C(O)C7O)[C@@](C)(/C=N/NC(=O)CCCCCN7C(=O)C=CC7=O)C6CC[C@@]5(C)[C@]3(C)C[C@H]4O)C(OC3OC(C)C(OC4OCC(O)C(OC5OC(CO)C(O)C(O)C5O)C4O)C(O)C3O)C2O)C(O)C1OC1OCC(O)C(O)C1O` (stereo partly shown) [SO1861-EMCH], the “concentration above which toxicity is seen as single compound” value in data set [2], in data set [4] and in data set [5] was greater than 25.000 nM each time. For the same compound, the “hydrolysis of the hydrazone bond” value in data set [3] is given as “gets cleaved”.

Turning to `CC(=O)OC1C(C)OC(OC2C(C)OC(OC(=O)[C@]34CCC(C)(C)CC3C3=CCC5[C@@]6(C)CC[C@H](OC7OC(C(=O)O)C(O)C(OC8OCC(O)C(O)C8O)C7OC7OC(CO)C(O)C(O)C7O)[C@@](C)(C=O)C6CC[C@@]5(C)[C@]3(C)C[C@H]4O)C(OC3OC(C)C(OC4OCC(O)C(OC5OC(CO)C(O)C(O)C5O)C4O)C(O)C3O)C2O)C(O)C1OC1OCC(O)C(O)C1O` (stereo partly shown) [SO1861], the “concentration above which toxicity is seen as single compound” value in data set [2], in data set [4] and in data set [5] was “strong cell viability reduction” each time.

On to `CCN(CC)CCCC(C)Nc1ccnc2cc(Cl)ccc12` (stereo not shown) [chloroquine, reference compound], for which, in data set [5] (SO1861 + dianthin-EGF + 500 nM chloroquine / 500 nM PAMAM (native, thiolated, PEGylated) / 667 nM dendron), the “effect on SO1861-mediated endosomal escape of dianthin-EGF and cell killing” value is “inhibit the SO1861-mediated endosomal escape”.

For saporin, in data set [6], the “influence on relative cell viability” value is “do not or hardly have any influence on cell viability”.
